Experimental data: patent US12503438B2, “Compounds for the treatment of kinase-dependent disorders” (Exelixis, Inc., priority 2019, dated 2025)

Columns and labels:
Human Axl = biological target: T1, Human Axl (Homo sapiens, UniProt P30530, Q764R); test: Human AXL kinase assay (33P-phosphoryl transfer radiometric, KinaseProfiler); settings: biochemical activity; 10 μM ATP
T1 construct: Human Axl (residues H473-A894 with Q764R, 161 nM); purchased Eurofins Pharma Discovery Services UK Limited (KinaseProfiler service)
T1 sequence (P30530 473-894 Q764R): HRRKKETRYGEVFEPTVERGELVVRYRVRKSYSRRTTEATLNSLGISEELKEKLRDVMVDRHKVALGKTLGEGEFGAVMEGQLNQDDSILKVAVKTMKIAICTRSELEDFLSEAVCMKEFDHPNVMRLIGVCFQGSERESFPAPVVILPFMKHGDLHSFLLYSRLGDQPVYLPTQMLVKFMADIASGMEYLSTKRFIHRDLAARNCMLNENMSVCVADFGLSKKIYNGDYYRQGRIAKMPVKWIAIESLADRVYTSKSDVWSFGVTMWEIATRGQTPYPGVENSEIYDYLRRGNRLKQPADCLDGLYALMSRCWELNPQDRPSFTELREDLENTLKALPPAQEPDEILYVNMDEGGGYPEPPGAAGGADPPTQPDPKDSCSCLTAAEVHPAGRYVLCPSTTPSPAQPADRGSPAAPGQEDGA
Procedure: Kinase activity and compound inhibition were investigated using the ^33P-Phosphoryl transfer radiometric kinase assay, performed using the KinaseProfiler™ service of Eurofins Pharma Discovery Services UK Limited. Dose-response experiments were performed using nine compound concentrations in a 96-well microtiter plate. For each assay, all compounds were prepared to a 50× final assay concentration (50 μM) in 100% DMSO, then diluted in a half-log series, with the final top concentration at 1 μM. This working stock of the compound was added to the assay well as the first component in the reaction, followed by the remaining components as detailed in the following assay protocols below. The positive control wells (100% kinase activity) contain all components of the reaction including 2% DMSO (control for solvent effects), except the compound of interest. Blank wells contain all components of the reaction, with the reference inhibitor, staurosporine. This reference compound was used to abolish kinase activity and generated the 0% kinase activity base-line. IC50 values were calculated by nonlinear regression analysis using the sigmoidal dose-response (variable slope) curve fit on XLFit version 5.3 (ID Business Solutions).
Human Axl (residues H473-A894 with Q764R, 161 nM) was incubated with 8 mM MOPS pH 7.0, 0.2 mM EDTA, 250 μM KKSRGDYMTMQIG, 10 mM magnesium acetate, and 10 μM [y-^33P-ATP]. The reaction was initiated by the addition of the Mg/ATP mix. After incubation for 40 minutes at room temperature, the reaction was stopped by the addition of phosphoric acid to a concentration of 0.5%. A reaction aliquot of 10 μL was then spotted onto a P30 filtermat and washed four times for 4 minutes in 0.425% phosphoric acid and once in methanol prior to drying and scintillation counting. Incorporated ^33P was measured using the Wallac Microbeta scintillation counter (Perkin Elmer).

KDR = KDR (Homo sapiens, UniProt P35968); test: KDR autophosphorylation ELISA in HUVEC cells; type: cell-based; parameters: endogenous in cells; host or cells: HUVEC (Lonza #C2519A); settings: cellular activity, VEGF165-stimulated, phospho-KDR ELISA
Sequence of KDR (P35968 20-1356): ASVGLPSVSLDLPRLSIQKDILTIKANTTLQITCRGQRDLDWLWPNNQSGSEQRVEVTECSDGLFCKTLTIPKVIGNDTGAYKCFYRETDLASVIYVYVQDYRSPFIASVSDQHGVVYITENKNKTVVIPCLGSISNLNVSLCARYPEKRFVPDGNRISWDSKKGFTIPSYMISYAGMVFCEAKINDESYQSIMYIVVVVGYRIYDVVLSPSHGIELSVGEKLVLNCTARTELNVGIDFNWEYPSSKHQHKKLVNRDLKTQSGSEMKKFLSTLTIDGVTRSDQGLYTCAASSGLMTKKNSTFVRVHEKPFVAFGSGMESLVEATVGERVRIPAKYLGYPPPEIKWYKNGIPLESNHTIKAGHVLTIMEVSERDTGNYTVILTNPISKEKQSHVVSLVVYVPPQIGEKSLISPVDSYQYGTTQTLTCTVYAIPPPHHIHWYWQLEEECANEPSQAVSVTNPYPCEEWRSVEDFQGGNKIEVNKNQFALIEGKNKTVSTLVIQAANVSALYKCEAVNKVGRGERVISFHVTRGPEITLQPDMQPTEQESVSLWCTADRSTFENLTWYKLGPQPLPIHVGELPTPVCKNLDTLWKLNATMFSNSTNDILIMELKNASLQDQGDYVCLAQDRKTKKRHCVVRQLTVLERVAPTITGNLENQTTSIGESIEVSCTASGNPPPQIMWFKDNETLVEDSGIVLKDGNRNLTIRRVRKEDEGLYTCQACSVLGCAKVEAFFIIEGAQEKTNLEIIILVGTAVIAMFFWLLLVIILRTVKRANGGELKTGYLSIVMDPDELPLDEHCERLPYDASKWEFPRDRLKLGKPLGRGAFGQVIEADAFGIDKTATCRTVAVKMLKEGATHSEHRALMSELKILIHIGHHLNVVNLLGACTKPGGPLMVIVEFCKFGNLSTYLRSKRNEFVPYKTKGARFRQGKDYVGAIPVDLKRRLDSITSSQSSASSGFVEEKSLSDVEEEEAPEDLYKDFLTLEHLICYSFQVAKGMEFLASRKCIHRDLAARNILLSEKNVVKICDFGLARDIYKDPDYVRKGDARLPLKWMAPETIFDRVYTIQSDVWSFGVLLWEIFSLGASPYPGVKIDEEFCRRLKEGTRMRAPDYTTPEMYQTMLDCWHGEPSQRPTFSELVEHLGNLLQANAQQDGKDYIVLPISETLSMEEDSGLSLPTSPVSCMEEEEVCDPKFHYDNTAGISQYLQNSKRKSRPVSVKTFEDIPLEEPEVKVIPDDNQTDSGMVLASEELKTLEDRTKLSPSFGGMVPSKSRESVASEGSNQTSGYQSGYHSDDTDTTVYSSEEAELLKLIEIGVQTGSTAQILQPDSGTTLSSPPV
Procedure, shortened: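 Read-out: phospho-KDR ELISA on cell lysates, quantified against a phospho-KDR standard, normalised to VEGF-stimulated DMSO (100%) and unstimulated (0%) wells, IC50 by 4-parameter fit. Cells were 24 h serum-starved HUVEC given compound for 1 h, then 100 ng/mL VEGF165 for 5 min.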

Met = Met (Homo sapiens, UniProt P08581); test: Met autophosphorylation ELISA in PC-3 cells; type: cell-based; parameters: endogenous in cells; host or cells: PC-3 prostate cancer cells (ATCC #CRL-1435); settings: cellular activity, HGF-stimulated, phospho-Met ELISA, read-out: c-Met IC50
Sequence of Met (P08581 25-1390): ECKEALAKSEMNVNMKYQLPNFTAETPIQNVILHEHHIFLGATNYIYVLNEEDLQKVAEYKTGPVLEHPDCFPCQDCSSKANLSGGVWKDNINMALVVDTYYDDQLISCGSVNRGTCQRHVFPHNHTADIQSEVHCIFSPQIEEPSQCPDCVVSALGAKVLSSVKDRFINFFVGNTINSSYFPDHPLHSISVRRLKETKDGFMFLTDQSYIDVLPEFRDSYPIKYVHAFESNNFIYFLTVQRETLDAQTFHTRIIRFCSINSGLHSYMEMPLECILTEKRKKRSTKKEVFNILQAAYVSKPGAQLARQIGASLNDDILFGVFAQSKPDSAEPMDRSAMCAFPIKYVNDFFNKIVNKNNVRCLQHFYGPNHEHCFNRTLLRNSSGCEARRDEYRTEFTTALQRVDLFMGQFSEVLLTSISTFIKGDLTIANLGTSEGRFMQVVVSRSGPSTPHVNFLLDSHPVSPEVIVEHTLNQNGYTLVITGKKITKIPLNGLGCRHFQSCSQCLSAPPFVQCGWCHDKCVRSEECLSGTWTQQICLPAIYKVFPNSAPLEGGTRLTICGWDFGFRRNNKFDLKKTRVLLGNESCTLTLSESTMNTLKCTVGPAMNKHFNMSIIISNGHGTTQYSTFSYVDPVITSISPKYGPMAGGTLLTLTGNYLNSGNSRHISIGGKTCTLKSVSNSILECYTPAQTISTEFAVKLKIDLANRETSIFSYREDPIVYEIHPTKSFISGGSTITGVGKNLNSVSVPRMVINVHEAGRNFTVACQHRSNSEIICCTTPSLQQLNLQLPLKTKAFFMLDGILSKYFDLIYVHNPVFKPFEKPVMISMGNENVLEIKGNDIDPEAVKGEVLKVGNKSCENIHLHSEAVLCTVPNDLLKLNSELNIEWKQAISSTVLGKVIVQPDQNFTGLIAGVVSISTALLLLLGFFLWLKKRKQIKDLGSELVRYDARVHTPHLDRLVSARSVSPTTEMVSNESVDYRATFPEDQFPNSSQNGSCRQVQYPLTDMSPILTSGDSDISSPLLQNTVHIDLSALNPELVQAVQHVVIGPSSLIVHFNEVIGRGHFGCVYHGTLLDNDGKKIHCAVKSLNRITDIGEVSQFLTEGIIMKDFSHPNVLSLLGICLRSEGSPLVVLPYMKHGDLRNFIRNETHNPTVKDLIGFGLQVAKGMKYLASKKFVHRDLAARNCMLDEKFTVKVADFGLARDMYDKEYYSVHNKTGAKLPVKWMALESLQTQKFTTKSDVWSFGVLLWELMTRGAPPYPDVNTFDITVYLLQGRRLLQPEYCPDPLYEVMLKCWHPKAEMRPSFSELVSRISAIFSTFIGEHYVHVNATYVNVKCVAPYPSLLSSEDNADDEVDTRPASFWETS
Procedure, shortened: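 Phospho-Met (panTyr) sandwich ELISA on lysates of PC-3 cells given 100 ng/mL HGF for 10 min after 1 h compound exposure (8-point curve, 0.3% DMSO) following 3 h serum starvation. Normalised to HGF-stimulated DMSO and reference-inhibitor wells; 4-parameter logistic IC50.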

| Structure (SMILES) | IC50 (Human Axl) | IC50 (KDR) | IC50 (Met) |
| --- | --- | --- | --- |
| CC(=O)N1CCC(n2cc(-c3ccc4c(Oc5ccc(NC(=O)C6(C(=O)Nc7ccc(F)cc7)CC6)cc5)ccnc4c3)cn2)CC1 [Compound 62, 1-N-[4-[7-[1-(1-Acetylpiperidin-4-yl)pyrazol-4-yl]quinolin-4-yl]oxyphenyl]-1-N′-(4-fluorophenyl)cyclopropane-1,1-dicarboxamide] | ≤ 10 nM | ≤ 10 nM | 10 to 100 nM |
| O=C(Nc1ccc(F)cc1)C1(C(=O)Nc2ccc(Oc3ccnc4cc(-c5cnn(CCO)c5)ccc34)cc2)CC1 [Compound 18, 1-N′-(4-Fluorophenyl)-1-N-[4-[7-[1-(2-hydroxyethyl)pyrazol-4-yl]quinolin-4-yl]oxyphenyl]cyclopropane-1,1-dicarboxamide] | ≤ 10 nM | ≤ 10 nM | ≤ 10 nM |
| O=C(Nc1ccc(F)cc1)C1(C(=O)Nc2ccc(Oc3ccnc4cc(-c5ccncc5)ccc34)cc2)CC1 [Compound 26, 1-N′-(4-Fluorophenyl)-1-N-[4-(7-pyridin-4-ylquinolin-4-yl)oxyphenyl]cyclopropane-1,1-dicarboxamide] | 10 to 100 nM | ≤ 10 nM | ≤ 10 nM |
| O=C(Nc1ccc(F)cc1)C1(C(=O)Nc2ccc(Oc3ccnc4cc(-c5cnn(CCN6CCOCC6)c5)ccc34)cc2)CC1 [Compound 19, 1-N′-(4-Fluorophenyl)-1-N-[4-[7-[1-(2-morpholin-4-ylethyl)pyrazol-4-yl]quinolin-4-yl]oxyphenyl]cyclopropane-1,1-dicarboxamide] | ≤ 10 nM | 10 to 100 nM | 10 to 100 nM |
| O=C(Nc1ccc(F)cc1)C1(C(=O)Nc2ccc(Oc3ccnc4cc(-c5cnn(C6CCNCC6)c5)ccc34)cc2)CC1 [Compound 60, 1-N′-(4-Fluorophenyl)-1-N-[4-[7-(1-piperidin-4-ylpyrazol-4-yl)quinolin-4-yl]oxyphenyl]cyclopropane-1,1-dicarboxamide] | ≤ 10 nM | 10 to 100 nM | 10 to 100 nM |
| Cn1nccc1-c1ccc2c(Oc3ccc(NC(=O)C4(C(=O)Nc5ccc(F)cc5)CC4)cc3)ccnc2c1 [Compound 54, 1-N′-(4-Fluorophenyl)-1-N-[4-[7-(2-methylpyrazol-3-yl)quinolin-4-yl]oxyphenyl]cyclopropane-1,1-dicarboxamide] | 10 to 100 nM | 10 to 100 nM | 10 to 100 nM |
| O=C(Nc1ccc(F)cc1)C1(C(=O)Nc2ccc(Oc3ccnc4cc(-c5cnoc5)ccc34)cc2)CC1 [Compound 57, 1-N′-(4-Fluorophenyl)-1-N-[4-[7-(1,2-oxazol-4-yl)quinolin-4-yl]oxyphenyl]cyclopropane-1,1-dicarboxamide] | ≤ 10 nM | 10 to 100 nM | 10 to 100 nM |
| O=C(Nc1ccc(F)cc1)C1(C(=O)Nc2ccc(Oc3ccnc4cc(-c5ccnnc5)ccc34)cc2)CC1 [Compound 28, 1-N′-(4-Fluorophenyl)-1-N-[4-(7-pyridazin-4-ylquinolin-4-yl)oxyphenyl]cyclopropane-1,1-dicarboxamide] | 10 to 100 nM | 10 to 100 nM | ≤ 10 nM |

Other lines, results leading:

| IC50 (Human Axl) | IC50 (KDR) | IC50 (Met) | Structure (SMILES) |
| --- | --- | --- | --- |
| ≤ 10 nM | ≤ 10 nM | ≤ 10 nM | Cn1cnc(-c2ccc3c(Oc4ccc(NC(=O)C5(C(=O)Nc6ccc(F)cc6)CC5)cc4)ccnc3c2)c1 [Compound 69, 1-N′-(4-Fluorophenyl)-1-N-[4-[7-(1-methylimidazol-4-yl)quinolin-4-yl]oxyphenyl]cyclopropane-1,1-dicarboxamide] |
| 10 to 100 nM | 10 to 100 nM | 10 to 100 nM | O=C(Nc1ccc(F)cc1)C1(C(=O)Nc2ccc(Oc3ccnc4cc(-c5nnco5)ccc34)cc2)CC1 [Compound 73, 1-N′-(4-Fluorophenyl)-1-N-[4-[7-(1,3,4-oxadiazol-2-yl)quinolin-4-yl]oxyphenyl]cyclopropane-1,1-dicarboxamide] |
| 10 to 100 nM | 100 to 300 nM | 100 to 300 nM | C#Cc1ccc2c(Oc3ccc(NC(=O)C4(C(=O)Nc5ccc(F)cc5)CC4)cc3)ccnc2c1 [Compound 64, 1-N-[4-(7-Ethynylquinolin-4-yl)oxyphenyl]-1-N′-(4-fluorophenyl)cyclopropane-1,1-dicarboxamide] |
| ≤ 10 nM | ≤ 10 nM | 10 to 100 nM | Cn1ncc(-c2ccc3c(Oc4ccc(NC(=O)C5(C(=O)Nc6ccc(F)cc6)CC5)cc4)ccnc3c2)n1 [Compound 86, 1-N′-(4-Fluorophenyl)-1-N-[4-[7-(2-methyltriazol-4-yl)quinolin-4-yl]oxyphenyl]cyclopropane-1,1-dicarboxamide] |
| ≤ 10 nM | > 300 nM | 10 to 100 nM | Cn1cc(-c2ccc3c(Oc4ccc(NC(=O)C5(C(=O)N6CCc7cc(F)ccc76)CC5)cc4)ccnc3c2)cn1 [Compound 81, 1-(5-Fluoro-2,3-dihydroindole-1-carbonyl)-N-[4-[7-(1-methylpyrazol-4-yl)quinolin-4-yl]oxyphenyl]cyclopropane-1-carboxamide] |
| ≤ 10 nM | ≤ 10 nM | 10 to 100 nM | CS(=O)(=O)n1cc(-c2ccc3c(Oc4ccc(NC(=O)C5(C(=O)Nc6ccc(F)cc6)CC5)cc4)ccnc3c2)cn1 [Compound 79, 1-N′-(4-Fluorophenyl)-1-N-[4-[7-(1-methylsulfonylpyrazol-4-yl)quinolin-4-yl]oxyphenyl]cyclopropane-1,1-dicarboxamide] |
| 10 to 100 nM | 10 to 100 nM | 10 to 100 nM | O=C(Nc1ccc(F)cc1)C1(C(=O)Nc2ccc(Oc3ccnc4cc(-c5ccn(C(F)F)n5)ccc34)cc2)CC1 [Compound 84, 1-N-[4-[7-[1-(Difluoromethyl)pyrazol-3-yl]quinolin-4-yl]oxyphenyl]-1-N′-(4-fluorophenyl)cyclopropane-1,1-dicarboxamide] |
| ≤ 10 nM | ≤ 10 nM | ≤ 10 nM | O=C(Nc1ccc(F)cc1)C1(C(=O)Nc2ccc(Oc3ccnc4cc(-c5cnc[nH]5)ccc34)cc2)CC1 [Compound 72, 1-N′-(4-Fluorophenyl)-1-N-[4-[7-(1H-imidazol-5-yl)quinolin-4-yl]oxyphenyl]cyclopropane-1,1-dicarboxamide] |
| 10 to 100 nM | 10 to 100 nM | 10 to 100 nM | O=C(Nc1ccc(F)cc1)C1(C(=O)Nc2ccc(Oc3ccnc4cc(-c5ccccn5)ccc34)cc2)CC1 [Compound 85, 1-N′-(4-Fluorophenyl)-1-N-[4-(7-pyridin-2-ylquinolin-4-yl)oxyphenyl]cyclopropane-1,1-dicarboxamide] |
| 100 to 1000 nM | > 300 nM | > 300 nM | C[Si](C)(C)C#Cc1ccc2c(Oc3ccc(NC(=O)C4(C(=O)Nc5ccc(F)cc5)CC4)cc3)ccnc2c1 [Compound 63, 1-N′-(4-Fluorophenyl)-1-N-[4-[7-(2-trimethylsilylethynyl)quinolin-4-yl]oxyphenyl]cyclopropane-1,1-dicarboxamide] |
| 10 to 100 nM | ≤ 10 nM | 10 to 100 nM | O=C(Nc1ccc(F)cc1)C1(C(=O)Nc2ccc(Oc3ccnc4cc(-c5ccn[nH]5)ccc34)cc2)CC1 [Compound 68, 1-N′-(4-Fluorophenyl)-1-N-[4-[7-(1H-pyrazol-5-yl)quinolin-4-yl]oxyphenyl]cyclopropane-1,1-dicarboxamide] |
| 100 to 1000 nM | > 300 nM | > 300 nM | O=C(Nc1ccc(F)cc1)C1(C(=O)Nc2ccc(Oc3ccnc4cc(-c5cnn[nH]5)ccc34)cc2)CC1 [Compound 65, 1-N′-(4-Fluorophenyl)-1-N-[4-[7-(1H-triazol-5-yl)quinolin-4-yl]oxyphenyl]cyclopropane-1,1-dicarboxamide] |
